# Columns and labels:
# AtARGAH1 [1] = target: T1, AtARGAH1 (Arabidopsis thaliana, UniProt P46637); experiment: turnover to ornithine during crystallization, seen in crystal structure; type: biochemical; conditions: 50 mM L-arginine in crystallization solution; Mn2+ enzyme
# T1 construct: gene ARGAH1; starts at codon 25 (signal peptide removed), ends at residue 342; N-terminal His6-tag cut by TEV (vector pMCSG68); E. coli BL21 Gold; hexamer, calculated 209 kDa
# T1 sequence (P46637 25-342): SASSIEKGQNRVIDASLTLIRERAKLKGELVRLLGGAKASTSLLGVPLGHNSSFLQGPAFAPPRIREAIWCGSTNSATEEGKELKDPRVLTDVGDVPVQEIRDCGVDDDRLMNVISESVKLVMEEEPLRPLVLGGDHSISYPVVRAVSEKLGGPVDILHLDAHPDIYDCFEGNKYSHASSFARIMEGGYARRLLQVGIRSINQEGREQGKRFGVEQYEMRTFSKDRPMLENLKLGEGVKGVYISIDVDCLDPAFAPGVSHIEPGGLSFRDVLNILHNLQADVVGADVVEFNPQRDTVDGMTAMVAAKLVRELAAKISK
# MtARGAH = target: T2, MtARGAH (Medicago truncatula, UniProt G7JFU5); experiment: as above; type: biochemical; conditions: 50 mM L-arginine in cocrystallization; Mn2+ enzyme
# T2 construct: gene ARGAH; full-length, 338 residues incl. predicted 15-residue signal peptide; N-terminal His6-tag cut by TEV (vector pMCSG68); E. coli BL21 Gold; hexamer, theoretical 224 kDa
# T2 sequence (G7JFU5 1-338): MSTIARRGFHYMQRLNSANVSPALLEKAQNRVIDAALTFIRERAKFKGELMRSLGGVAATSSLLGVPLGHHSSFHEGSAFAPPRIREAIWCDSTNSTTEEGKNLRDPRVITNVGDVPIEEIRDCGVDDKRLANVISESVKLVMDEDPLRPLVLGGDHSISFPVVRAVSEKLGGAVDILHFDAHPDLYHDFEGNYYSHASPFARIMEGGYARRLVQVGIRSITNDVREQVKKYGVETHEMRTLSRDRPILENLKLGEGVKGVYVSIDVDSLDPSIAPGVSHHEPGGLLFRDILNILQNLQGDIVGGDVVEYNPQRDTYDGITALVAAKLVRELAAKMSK
# AtARGAH1 [2] = target: T1, AtARGAH1; experiment: X-ray crystal structure, […] A; type: binding; conditions: product of arginine hydrolysis before crystal growth (50 mM L-arginine, 50 mM L-glutamic acid); binuclear Mn2+; active site, completed by loop L2* of neighbouring subunit
Structure (SMILES),"turnover to ornithine during crystallization, seen in crystal structure (AtARGAH1 [1])","turnover to ornithine during crystallization, seen in crystal structure (MtARGAH)","X-ray crystal structure, 2.25 A (AtARGAH1 [2])"
N=C(N)NCCC[C@H](N)C(=O)O [L-arginine],obtained as a result of in vitro arginine hydrolysis,obtained as a result of in vitro arginine hydrolysis,
NCCC[C@H](N)C(=O)O [ornithine],,,"Structures of AtARGAH1-ORN and MtARGAH-ORN with the reaction product, ornithine, were obtained"

# Source: paper PMC7370999, “The Neighboring Subunit Is Engaged to Stabilize the Substrate in the Active Site of Plant Arginases” (Frontiers in Plant Science, 2020)
